# Results: patent publication EP1285920A1, “C10 Ester sustituted taxanes as antitumor agents” (Florida State University Research Foundation, Inc., priority 2001, dated 2003)
# Like-named read-outs stand apart in the source and are kept apart here.
# Key:
# [1] = test system: VM46 colon carcinoma; conditions: for Toxic Deaths / Complete Response / Partial Response / Stable Disease / Survivors: number of mice; for Complete Response / Partial Response / Stable Disease / Survivors: Day 64
# Method: Dosing was initiated on Day 1. […] Taxotere was given i.v. at a dose of 70 mg/kg on a qd x 1 schedule.
# [2] = test system: HCT116 carcinoma; conditions: for Toxic Deaths: mg/kg: Taxol 36 (split doses), 0503 72.6, 0536 49, 0663 159, 0670 123, 0687 159, 0706 108, 0908 159, 0947 76.9, 0951 72.6, 0983 72.6, 0999 49, 1003 49, 1011 108
# Method: Antitumor compounds were formulated for an i.v. dosing regime and were prepared in the following vehicle: 5% ethanol, 5% Cremophor and 90% isotonic saline.
# (§1) The antitumor compounds were given intravenously in a single maximum tolerated dose (MTD) appropriate for each compound. […] The MTDs for the antitumor compounds were calculated from earlier single dose data for mice receiving i.v. administration of these compounds. All vehicle control animals in the split dosing regimes were dosed twice intravenously with half of the total volume being given separated by one hour. The study was terminated on Day 60.
# A complete response is obtained if the tumor is not palpable at the end of the study.
# [3] = test system: HCT116; assay: In Vitro cytotoxicity measured by the cell colony formation assay; assay type: cell-based, human; conditions: Homo sapiens, HCT-116; read-out: IN VITRO ID 50 HCT116
# Method in brief: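 Four hundred cells per dish in McCoy's 5a medium with 10% FBS were allowed to attach for 5 h at 37 °C. They were then exposed to compound for 72 h at 37 °C, added as a 10× stock made fresh in medium. After HBSS rinsing and refeeding, colonies were counted after 7 days.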
# [4] = test system: A2780 ovarian carcinoma; conditions: for MDS: i.v. qd x 1 (compounds estimated MTD; Taxol 24 mg/kg split; Taxotere 70 mg/kg), days until tumor 2.0 g, ended Day 60
# Method: Dosing was initiated on Day 1. […] Taxotere was given i.v. on a qd x 1 schedule at a dose of 70 mg/kg. […] The study was terminated on Day 60. Treatment groups are detailed in Table 7.
# [5] = test system: MX-1 carcinoma; conditions: for Toxic Deaths: mg/kg: Taxol 36 (split dose), 0503 72.6, 0536 49, 0663 159, 0670 123, 0687 159, 0706 108, 0908 159, 0947 76.9, 0951 72.6, 0983 67.4, 0999 49, 1003 49, 1011 108
# Method: Thirteen antitumor compounds were formulated for an i.v. dosing regime (single i.v. bolus, qd x 1 schedule) prepared in the following vehicle: 5% ethanol, 5% Cremophor and 90% isotonic saline.
# as §1, with “half” for “half of”
# A complete response is obtained if the tumor is not palpable at the end of the study. […]
# [6] = test system: A375 melanoma
# Method: Dosing was initiated on Day 1. […] Taxotere was given i.v. on a qd x 1 schedule at a dose of 70 mg/kg. […] The study was terminated on Day 60. Treatment groups are detailed in Table 9.
# [7] = i.v. qd x 1, mg/kg: Taxol 24, 0499 77, 0503 72.6, 0670 123.1, 0706 107.6, 0838 72.6, 0854 46.6, 0983 67.4, Taxotere 70, 6 mice/group
# [8] = number of 5 mice, i.v. qd x 1 at MTD, Day 60, doses as in E3
# [9] = number of 5 mice, i.v. qd x 1 at MTD, Day 60
# [10] = number of mice, i.v. qd x 1 at estimated MTD (Taxol 24 mg/kg, Taxotere 70 mg/kg, 0983 72.6 mg/kg), 5 mice/group (Taxotere 6)
# [11] = number of mice, i.v. qd x 1 at estimated MTD (Taxol 24 mg/kg, Taxotere 70 mg/kg, 0983 72.6 mg/kg), 5 mice/group (Taxotere 6), Day 60
# [12] = number of 6 mice, i.v. qd x 1 at MTD, Day 60, doses as in E17
# [13] = number of 6 mice, i.v. qd x 1 at MTD, Day 60
# [14] = number of mice, i.v. qd x 1 at estimated MTD (Taxol 24 mg/kg, Taxotere 70 mg/kg), 6 mice/group (Taxotere 7), Day 60
# [15] = A2780, i.v. qd x 1, five mice per group
Compound,"Toxic Deaths [1, 7]","Complete Response [1, 7]","Partial Response [1, 7]","Stable Disease [1, 7]","Survivors [1, 7]",Partial Response ([2]; iv),"Complete Response ([2]; iv, 1440 h)","Mean Score ([2]; iv, 1440 h)","Stable Disease ([2]; iv, 1440 h)","Survivors [2, 8]","Toxic Deaths [2, 9]",IC50 [3] [nM],"Toxic Deaths [4, 10]","Survivors [4, 11]",Partial Response ([5]; iv),"Complete Response ([5]; iv, 1440 h)","Mean Score ([5]; iv, 1440 h)","Stable Disease ([5]; iv, 1440 h)","Survivors [5, 12]","Toxic Deaths [5, 13]",also measured
CCCC(=O)O[C@H]1C(=O)[C@@]2(C)[C@H]([C@H](OC(=O)c3ccccc3)[C@]3(O)C[C@H](OC(=O)[C@H](O)[C@@H](NC(=O)OC(C)(C)C)c4ccco4)C(C)=C1C3(C)C)[C@]1(OC(C)=O)CO[C@@H]1C[C@@H]2O [Compound 0983],3,0,0,1,1,1,2,5.8 ± 2.4,0,3,2,< 1,5,0,0,6,10 ± 0,0,6,0,"response rate ([1]; VM46, i.v. qd x 1 at estimated MTD): 0%; Mean Score ([1]; iv): 1.7 ± 0.8; MDS (n) ([1]; iv, 1536 h): 56.0 ± 6.8 (2) days; group mean weight losses ([2]; HCT116, single i.v. MTD, Days 6-10): over 20%; Mean Score ([4]; iv, 72.6 mg/kg): 0 ± 0; Complete Response ([4]; iv, 72.6 mg/kg, 1440 h): 0; Partial Respons ([4]; iv, 72.6 mg/kg, 1440 h): 0; Stable Disease ([4]; iv, 72.6 mg/kg, 1440 h): 0"
"CC(=O)O[C@@]12CO[C@@H]1C[C@H](O)[C@@]1(C)C(=O)[C@H](O)C3=C(C)[C@@H](OC(=O)[C@H](O)[C@@H](NC(=O)OC(C)(C)C)c4ccccc4)C[C@@](O)([C@@H](OC(=O)c4ccccc4)[C@H]21)C3(C)C [Taxotere, docetaxel, reference compound]",0,0,0,0,0,–,–,–,–,–,–,0.6,0,0,–,–,–,–,–,–,"MDS ([1]; VM46, i.v. qd x 1 (Taxol 24 mg/kg split; Taxotere 70 mg/kg), days until tumor 1.5 g): 45.3 days; MDS (n) ([1]; mean days of survival until neoplasm reached 1.5 g, i.v. qd x 1, mg/kg: Taxol 24, 0499 77, 0503 72.6, 0670 123.1, 0706 107.6, 0838 72.6, 0854 46.6, 0983 67.4, Taxotere 70, 6 mice/group, terminated Day 64): 45.3 ± 3.6 (6) days; Mean Score ([1]; tumor scoring system, i.v. qd x 1, mg/kg: Taxol 24, 0499 77, 0503 72.6, 0670 123.1, 0706 107.6, 0838 72.6, 0854 46.6, 0983 67.4, Taxotere 70, 6 mice/group): 2 ± 0; antitumor activity ([4]; A2780, i.v. qd x 1): more active than Taxol; survival extension compared to Group 1 controls ([4]; A2780, i.v. qd x 1): 134%; MDS ([4]; A2780): 27.4 days; MDS (n) ([4]; mean days of survival until neoplasm reached 2.0 g, i.v. qd x 1 at estimated MTD (Taxol 24 mg/kg, Taxotere 70 mg/kg, 0983 72.6 mg/kg), 5 mice/group (Taxotere 6), terminated Day 60): 27.4 ± 3.5 (6) days; Complete Response [4, 11]: 0; Partial Respons [4, 11]: 0; Stable Disease [4, 11]: 0; Mean Score ([4]; tumor scoring system, i.v. qd x 1 at estimated MTD (Taxol 24 mg/kg, Taxotere 70 mg/kg, 0983 72.6 mg/kg), 5 mice/group (Taxotere 6)): 2.5 ± 0.3; survival extension compared to Group 1 controls ([6]; A375, i.v. qd x 1): 49%; MDS ([6]; A375, i.v. qd x 1 (Taxol 24 mg/kg split; Taxotere 70 mg/kg), days until tumor 2.0 g, ended Day 60): 21.5 days; MDS (n) ([6]; mean days of survival until neoplasm reached 2.0 g, i.v. qd x 1 at estimated MTD (Taxol 24 mg/kg, Taxotere 70 mg/kg), 6 mice/group (Taxotere 7), terminated Day 60): 21.5 ± 0.5 (7) days; Toxic Deaths ([6]; number of mice, i.v. qd x 1 at estimated MTD (Taxol 24 mg/kg, Taxotere 70 mg/kg), 6 mice/group (Taxotere 7)): 0; Complete Response [6, 14]: 0; Partial Response [6, 14]: 0; Stable Disease [6, 14]: 0; Survivors [6, 14]: 0; Mean Score ([6]; tumor scoring system, i.v. qd x 1 at estimated MTD (Taxol 24 mg/kg, Taxotere 70 mg/kg), 6 mice/group (Taxotere 7)): 2 ± 0"
CCCC(=O)O[C@H]1C(=O)[C@@]2(C)[C@H]([C@H](OC(=O)c3ccccc3)[C@]3(O)C[C@H](OC(=O)[C@H](O)[C@@H](NC(=O)OC(C)(C)C)c4ccccn4)C(C)=C1C3(C)C)[C@]1(OC(C)=O)CO[C@@H]1C[C@@H]2O [Compound 0951],–,–,–,–,–,–,–,–,–,5,0,< 1,–,–,–,–,–,–,6,0,"Mean Score ([2]; i.v. qd x 1 at MTD, 5 mice/group, Day 60, doses as in E3): 9.6 ± 0.2; Stable Disease ([2]; number of 5 mice, tumor did not reach 2.0 g by end of study, i.v. qd x 1 at MTD, Day 60, doses as in E3): 0; Complete Response ([2]; number of 5 mice, tumor not palpable at end of study, i.v. qd x 1 at MTD, Day 60, doses as in E3): 3; Partial Response ([2]; number of 5 mice, tumor smaller than on Day 1, i.v. qd x 1 at MTD, Day 60, doses as in E3): 2; antitumor activity ([4]; A2780, i.v. qd x 1): no tumor shrinkage; survival extension compared to Group 1 controls ([4]; A2780, i.v. qd x 1): 269%; MDS ([4]; A2780): 43.2 days; Stable Disease [4, 15]: one; treated animals with durable complete responses and partial responses ([5]; MX-1, single i.v. MTD): 100%; Mean Score ([5]; i.v. qd x 1 at MTD, 6 mice/group, Day 60, doses as in E17): 9.5 ± 0.5; Stable Disease ([5]; number of 6 mice, tumor did not reach 2.0 g by end of study, i.v. qd x 1 at MTD, Day 60, doses as in E17): 0; Complete Response ([5]; number of 6 mice, tumor not palpable at end of study, i.v. qd x 1 at MTD, Day 60, doses as in E17): 5; Partial Response ([5]; number of 6 mice, tumor smaller than on Day 1, i.v. qd x 1 at MTD, Day 60, doses as in E17): 1"
CCCC(=O)O[C@H]1C(=O)[C@@]2(C)[C@H]([C@H](OC(=O)c3ccccc3)[C@]3(O)C[C@H](OC(=O)[C@H](O)[C@@H](NC(=O)OC(C)(C)C)c4cccs4)C(C)=C1C3(C)C)[C@]1(OC(C)=O)CO[C@@H]1C[C@@H]2O [Compound 1003],–,–,–,–,–,3,2,9.4 ± 0.2,0,5,0,< 1,–,–,0,4,7.3 ± 1.7,0,4,0,"partial responses [4, 15]: 2; total response rate [4, 15]: at least 20%; MDS (n) ([5]; iv, 1440 h): 29.1 ± 10.8 (2) days"
